Measurements taken from patent US20210315869A1, “COMPOUNDS AND METHODS FOR CSK MODULATION AND INDICATIONS THEREFOR” (Plexxikon Inc., priority 2020, published 2021).

How the values were obtained:
CSK = target: T1, CSK (Homo sapiens, UniProt P41240); test: Human CSK enzymatic assay (AlphaScreen, Poly (Glu4-Tyr) substrate); assay type: biochemical; settings: 100 uM ATP; read-out: CSK IC50 (μM) COFACTOR: 100 uM ATP
T1 construct: purchased Thermo Fisher
Protocol: This assay measures the ability of CSK to phosphorylate a biotinylated peptide containing multiple tyrosine residues in vitro. The CSK enzyme was purchased from Thermo Fisher. The biotinylated Poly (Glu4-Tyr) peptide substrate was purchased from Sigma-Aldrich. The CSK enzyme assay was performed using 0.75 ng CSK enzyme and 30 nM Poly (Glu4-Tyr) substrate in the presence of 25 mM Hepes pH 7.5, 5 mM Mg Acetate, 0.1% NP-40, 1 mM DTT, 0.01% BSA, and 100 μM ATP. A 19 μL volume of the above reaction mixture was added to wells of 384-well AlphaPlate (PerkinElmer GA, USA) containing 1 μL of various concentrations of test compound or DMSO vehicle and incubated for 60 minutes at room temperature. 16 wells containing all the components of reaction mixture and 5% DMSO serve as high control. 16 wells containing all the components except ATP of reaction mixture and 5% DMSO served as low control. The enzymatic reaction was stopped by the addition of 5 μL stop/detection mixture containing 25 mM Hepes pH 7.5 100 mM EDTA, and 5 μg/mL streptavidin-coated AlphaScreen donor beads (PerkinElmer GA, USA) and incubated for 20 minutes. A 5 μL mixture containing 25 mM Hepes pH 7.5, 100 mM EDTA, and 5 μg/mL anti-phosphotyrosine antibody PY20-coated AlphaScreen acceptor beads (PerkinElmer GA, USA) was added and the plate was incubated for 1 hour at room temperature. The streptavidin donor beads bind to the biotin moiety on the biotinylated Poly (Glu4-Tyr) substrate and the PY20 antibody-coated acceptor beads bind to tyrosine residues on the substrate that have been directly phosphorylated by CSK. Upon excitation of these beads with laser light at 680 nm, singlet oxygen was produced. This singlet oxygen was rapidly quenched, unless the AlphaScreen PY20 acceptor beads are in close proximity, in which case a proximity signal can be measured at 580 nm. In the presence of catalytic activity, there was a very strong proximity signal. Selective CSK inhibitors affect a decrease in this proximity signal through a decrease in phosphorylation of the Poly (Glu4-Tyr) substrate. The percentage of inhibition at individual concentrations relative to high and low controls was calculated. The data were analyzed by using nonlinear regression to generate IC50 values. Human LCK enzymatic assay

LCK = target: T2, LCK (Homo sapiens, UniProt P06239); test: Human LCK enzymatic assay (AlphaScreen, Poly (Glu4-Tyr) substrate); assay type: biochemical; settings: 100 uM ATP; read-out: LCK IC50 (uM) COFACTOR: 100 uM ATP
T2 construct: purchased ProQinase
T2 sequence (P06239 whole entry): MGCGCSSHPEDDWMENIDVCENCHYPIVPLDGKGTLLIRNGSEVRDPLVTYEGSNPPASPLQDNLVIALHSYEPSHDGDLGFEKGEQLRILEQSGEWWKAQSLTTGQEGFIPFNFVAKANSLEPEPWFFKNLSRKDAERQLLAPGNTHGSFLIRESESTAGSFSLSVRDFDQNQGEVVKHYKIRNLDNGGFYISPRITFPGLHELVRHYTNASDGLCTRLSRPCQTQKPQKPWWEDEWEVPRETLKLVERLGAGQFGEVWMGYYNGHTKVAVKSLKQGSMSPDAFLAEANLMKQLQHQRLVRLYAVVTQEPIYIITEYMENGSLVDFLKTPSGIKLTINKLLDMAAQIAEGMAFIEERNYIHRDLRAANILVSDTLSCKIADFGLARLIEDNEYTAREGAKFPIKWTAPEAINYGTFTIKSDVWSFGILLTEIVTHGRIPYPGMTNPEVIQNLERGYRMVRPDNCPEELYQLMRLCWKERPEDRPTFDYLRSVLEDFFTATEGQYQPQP
Protocol: This assay measures the ability of LCK to phosphorylate a biotinylated peptide containing multiple tyrosine residues in vitro. The LCK enzyme was purchased from ProQinase. The biotinylated Poly (Glu4-Tyr) peptide substrate was purchased from Sigma-Aldrich. The LCK enzyme assay was performed using 1 ng LCK enzyme and 30 nM Poly (Glu4-Tyr) substrate in the presence of 25 mM Hepes pH 7.5, 10 mM MnCl2, 50 mM NaCl, 0.01% Tween-20, 0.5 mM DTT, 0.01% BSA, and 100 μM ATP. A 19 μL volume of the above reaction mixture was added to wells of 384-well AlphaPlate (PerkinElmer GA, USA) containing 1 μL of various concentrations of test compound or DMSO vehicle and incubated for 40 minutes at 25° C. 16 wells containing all the components of reaction mixture and 5% DMSO served as high control. 16 wells containing all the components except ATP of reaction mixture and 5% DMSO served as low control. The enzymatic reaction was stopped by the addition of 5 μL stop/detection mixture containing 25 mM Hepes pH 7.5 100 mM EDTA, and 10 μg/mL streptavidin-coated AlphaScreen donor beads (PerkinElmer GA, USA) and incubated for 20 minutes. A 5 μL mixture containing 25 mM Hepes pH 7.5, 100 mM EDTA, and 10 μg/mL anti-phosphotyrosine antibody PY20-coated AlphaScreen acceptor beads (PerkinElmer GA, USA) was added and the plate was incubated for 1 hour at room temperature. The streptavidin donor beads bind to the biotin moiety on the biotinylated Poly (Glu4-Tyr) substrate and the PY20 antibody-coated acceptor beads bind to tyrosine residues on the substrate that have been directly phosphorylated by LCK. Upon excitation of these beads with laser light at 680 nm, singlet oxygen was produced. This singlet oxygen was rapidly quenched, unless the AlphaScreen PY20 acceptor beads are in close proximity, in which case a proximity signal can be measured at 580 nm. In the presence of catalytic activity, there was a very strong proximity signal. Selective LCK inhibitors affect a decrease in this proximity signal through a decrease in phosphorylation of the Poly (Glu4-Tyr) substrate. The percentage of inhibition at individual concentrations relative to high and low controls was calculated. The data were analyzed by using nonlinear regression to generate IC50 values.

Jurkat/NFAT-RE cells = test: NFAT reporter assay (luciferase) in Jurkat/NFAT-RE cells; assay type: cell-based; settings: Homo sapiens, 0.02 μg/mL anti-CD3 antibody OKT3, 3 hours, read-out: Jurkat EC50 (uM) Cell Assay: Reporter Cell Variant: NFAT response element
Description: To assess the ability of CSK inhibitors to activate LCK and stimulate signaling downstream of the T-cell receptor, an NFAT reporter assay was used for monitoring of LCK activation in cells through the activation of LCK-dependent signaling through a reporter assay. The Jurkat T-cell cell line was genetically engineered to express a luciferase reporter that is regulated by the NFAT-response element. (Clipstone, N. A., & Crabtree, G. R., Identification of calcineurin as a key signalling enzyme in T-lymphocyte activation, Nature, 357(6380), 695-697, 1992). Stimulation of the T-cell receptor with anti-CD3 antibody increases the expression of the luciferase reporter. To test the ability of CSK inhibitors to stimulate LCK and downstream T-cell signaling, the cells were stimulated with a suboptimal concentration of anti-CD3 ligand, to measure the ability of CSK inhibitors to increase luciferase expression.
This assay measures the signaling activity downstream of the T-cell receptor, specifically the ability of the NFAT transcription factor to be translocated to the nucleus and induce expression of a firefly luciferase gene. Jurkat/NFAT-RE cells stably expressing the NFAT reporter construct were purchased from BPS Bioscience. The assay was performed by plating 40,000 Jurkat/NFAT-RE cells in a 50 μL volume of serum-free growth media in a 96-well plate. Following an overnight incubation, the cells were treated with CSK inhibitors and 0.02 μg/mL anti-CD3 antibody OKT3 (BD Bioscience) for 3 hours at 37° C. High control wells were stimulated with DMSO and 5 μg/mL OKT3 to maximally stimulate the NFAT reporter, and low control wells were stimulated with DMSO and 0.02 μg/mL OKT3. Following the 3 hour incubation, the cells were assayed for viability using CellTiter-Fluor™ (Promega), and for luciferase expression using ONE-Glo™ (Promega). The ONE-Glo™ signal was normalized to the CellTiter-Fluor™ signal, and the percentage of NFAT activation relative to high and low controls was calculated. The data were analyzed by using nonlinear regression to generate EC50 values. Selective CSK inhibitors affect an increase in luciferase expression in the presence of low level stimulation of the T-cell receptor.

| Compound | IC50 (CSK) | IC50 (LCK) | EC50 (Jurkat/NFAT-RE cells) |
| --- | --- | --- | --- |
| Cc1c(-c2cccc(NS(=O)(=O)c3cc4scnc4cc3F)c2F)c(=O)n(C2CC2)c2cc(N)ncc12 [P-0028, N-(3-(7-amino-1-cyclopropyl-4-methyl-2-oxo-1,2-dihydro-1,6-naphthyridin-3-yl)-2-fluorophenyl)-5-fluorobenzo[d]thiazole-6-sulfonamide] | 5 to 100 µM | 5 to 100 µM |  |
| Nc1cc2c(cn1)cc(-c1c(F)ccc(NS(=O)(=O)c3ccc4ncsc4c3)c1F)c(=O)n2C1CC1 [P-0026, N-(3-(7-amino-1-cyclopropyl-2-oxo-1,2-dihydro-1,6-naphthyridin-3-yl)-2,4-difluorophenyl)benzo[d]thiazole-6-sulfonamide] | 0.001 to 0.5 µM | 5 to 100 µM | 0.5 to 5 µM |
| Nc1cc2c(cn1)cc(-c1c(F)ccc(NS(=O)(=O)c3ccc4ncsc4c3F)c1F)c(=O)n2CC(F)(F)F [P-0022, N-(3-(7-amino-2-oxo-1-(2,2,2-trifluoroethyl)-1,2-dihydro-1,6-naphthyridin-3-yl)-2,4-difluorophenyl)-7-fluorobenzo[d]thiazole-6-sulfonamide] | 0.001 to 0.5 µM | 0.5 to 5 µM | 0.001 to 0.5 µM |
| Nc1cc2c(cn1)cc(-c1c(F)ccc(NS(=O)(=O)c3ccc4ncsc4c3F)c1F)c(=O)n2C1CC1 [P-0027, N-(3-(7-amino-1-cyclopropyl-2-oxo-1,2-dihydro-1,6-naphthyridin-3-yl)-2,4-difluorophenyl)-7-fluorobenzo[d]thiazole-6-sulfonamide] | 0.001 to 0.5 µM |  | 0.001 to 0.5 µM |
| Nc1cc2c(cn1)cc(-c1c(F)ccc(NS(=O)(=O)c3cc4scnc4cc3F)c1F)c(=O)n2CC1CC1 [P-0002, N-(3-(7-amino-1-(cyclopropylmethyl)-2-oxo-1,2-dihydro-1,6-naphthyridin-3-yl)-2,4-difluorophenyl)-5-fluorobenzo[d]thiazole-6-sulfonamide] | 0.001 to 0.5 µM | 0.5 to 5 µM | 0.001 to 0.5 µM |
| Nc1cc2c(cn1)cc(-c1c(F)ccc(NS(=O)(=O)c3cc4scnc4cc3F)c1F)c(=O)n2CC(F)(F)C1CC1 [P-0017, N-(3-(7-amino-1-(2-cyclopropyl-2,2-difluoroethyl)-2-oxo-1,2-dihydro-1,6-naphthyridin-3-yl)-2,4-difluorophenyl)-5-fluorobenzo[d]thiazole-6-sulfonnamide] | 0.001 to 0.5 µM | 5 to 100 µM | 0.001 to 0.5 µM |

The next lines start with the values.

| IC50 (CSK) | IC50 (LCK) | EC50 (Jurkat/NFAT-RE cells) | Compound |
| --- | --- | --- | --- |
| 0.001 to 0.5 µM | 5 to 100 µM | 0.001 to 0.5 µM | CNc1cc2c(cn1)cc(-c1c(F)ccc(NS(=O)(=O)c3cc4scnc4cc3F)c1F)c(=O)n2CC1CC1 [P-0005, N-(3-(1-(cyclopropylmethyl)-7-(methylamino)-2-oxo-1,2-dihydro-1,6-naphthyridin-3-yl)-2,4-difluorophenyl)-5-fluorobenzo[d]thiazole-6-sulfonamide] |
| 0.001 to 0.5 µM | 0.5 to 5 µM | 0.001 to 0.5 µM | Nc1cc2c(cn1)cc(-c1c(F)ccc(NS(=O)(=O)c3ccc4ncsc4c3F)c1F)c(=O)n2CC(F)F [P-0019, N-(3-(7-amino-1-(2,2-difluoroethyl)-2-oxo-1,2-dihydro-1,6-naphthyridin-3-yl)-2,4-difluorophenyl)-7-fluorobenzo[d]thiazole-6-sulfonamide] |
| 0.001 to 0.5 µM | 5 to 100 µM | 0.001 to 0.5 µM | Nc1cc2c(cn1)cc(-c1c(F)ccc(NS(=O)(=O)c3cc4scnc4cc3F)c1F)c(=O)n2CC1CC(F)(F)C1 [P-0018, N-(3-(7-amino-1-((3,3-difluorocyclobutyl)methyl)-2-oxo-1,2-dihydro-1,6-naphthyridin-3-yl)-2,4-difluorophenyl)-5-fluorobenzo[d]thiazole-6-sulfonamide] |
| 0.001 to 0.5 µM | 5 to 100 µM | 0.5 to 5 µM | O=c1c(-c2c(F)ccc(NS(=O)(=O)c3cc4scnc4cc3F)c2F)cc2cnc(NCCO)cc2n1CC1CC1 [P-0010, N-(3-(1-(cyclopropylmethyl)-7-((2-hydroxyethyl)amino)-2-oxo-1,2-dihydro-1,6-naphthyridin-3-yl)-2,4-difluorophenyl)-5-fluorobenzo[d]thiazole-6-sulfonamide] |
| 0.001 to 0.5 µM | 5 to 100 µM | 0.5 to 5 µM | COCCn1c(=O)c(-c2c(F)ccc(NS(=O)(=O)c3cc4scnc4cc3F)c2F)cc2cnc(N)cc21 [P-0004, N-(3-(7-amino-1-(2-methoxyethyl)-2-oxo-1,2-dihydro-1,6-naphthyridin-3-yl)-2,4-difluorophenyl)-5-fluorobenzo[d]thiazole-6-sulfonamide] |
| 0.001 to 0.5 µM | 5 to 100 µM |  | Nc1cc2c(cn1)cc(-c1cccc(NS(=O)(=O)c3cc4scnc4cc3F)c1F)c(=O)n2C1CC1 [P-0029, N-(3-(7-amino-1-cyclopropyl-2-oxo-1,2-dihydro-1,6-naphthyridin-3-yl)-2-fluorophenyl)-5-fluorobenzo[d]thiazole-6-sulfonamide] |
| 0.001 to 0.5 µM | 0.5 to 5 µM | 0.001 to 0.5 µM | Nc1cc2c(cn1)cc(-c1c(F)ccc(NS(=O)(=O)c3cc4scnc4cc3F)c1F)c(=O)n2CC(F)(F)F [P-0021, N-(3-(7-amino-2-oxo-1-(2,2,2-trifluoroethyl)-1,2-dihydro-1,6-naphthyridin-3-yl)-2,4-difluorophenyl)-5-fluorobenzo[d]thiazole-6-sulfonamide] |
